Source: US20230064189A1, “1H-PYRAZOLO[3,4-D]PYRIMIDINE COMPOUNDS USEFUL FOR THE TREATMENT OF PLATINUM-RESISTANT CANCER” (IMPERIAL COLLEGE INNOVATIONS LIMITED, priority 2019, published 2023)

Experiments:
[1] = tested on: platinum resistant epithelial ovarian cancer cell line SKOV3; test: Isobologram (Loewe synergy/antagonism, MTT viability) with cisplatin in SKOV3; assay type: cell-based; conditions: SKOV3, 72 hours, MTT readout
Experimental: (§1) . Data shown is n=3. Decreasing negative numbers within each table indicate increasing levels of antagonism, increasing positive numbers indicate increasing levels of synergy between cisplatin and inhibitor compounds.
(§2) Cell viability was determined for different assays (as described in FIGS. 1 and 2, Table 5) in optically clear 96 well plates using the standard 3-(4, 5-dimethylthiazol-2-yl)-2, 5-diphenyl tetrazolium bromide (MTT) assay, which is a colorimetric method for determining the number of metabolically active cells in cytotoxicity assays. MTT is bioreduced by mitochondrial dehydrogenase enzymes into a coloured solid formazan product. […] The following day, the optical density was read at 570 nm and analysis performed as per each assay type.
(§3) All cell lines (PEO1, PEO4 and SKOV3) were seeded out 24 hours prior to treatment into 96 well plates at 10,000 cells per well in triplicate for each inhibitor compound. […] Following 72 hours incubation, cell viability was assessed using the MTT assay (n=3). IC50 values for each compound was determined using GraphPad Prism software, non-linear regression of log (inhibitor) versus response (three parameters). All isobologram assays used the standard MTT protocol as described above for assay readout. […] Following 72 h incubation, cell viability was assessed using MTT assays as described above. […]

[2] = tested on: PEO4 cells; test: Relative re-sensitisation ratio of apoptosis induction (caspase 3/7 normalised to MTT) with cisplatin; assay type: cell-based; conditions: compound at 20 μM, triciribine at 25 μM, cisplatin 25 μM, 24 h
Experimental: Cell viability was determined for different assays (as described in FIGS. 1 and 2, Table 5) in optically clear 96 well plates using the standard 3-(4, 5-dimethylthiazol-2-yl)-2, 5-diphenyl tetrazolium bromide (MTT) assay, which is a colorimetric method for determining the number of metabolically active cells in cytotoxicity assays. MTT is bioreduced by mitochondrial dehydrogenase enzymes into a coloured solid formazan product. MTT reagent (Sigma, UK) was initially prepared by dissolving in PBS at a concentration of 3 mg/ml. Following relevant drug treatments at different time points and cell lines (described in results section and FIGS. 1 and 2), MTT reagent was added to each experimental well at a final concentration of 0.5 mg/ml. After incubation for 3 h at 37° C. 5% CO2, an equal volume of stop solution (10% SDS in 0.01% HCl) was added and formed formazan crystals were allowed to dissolve shaking overnight. The following day, the optical density was read at 570 nm and analysis performed as per each assay type.
(§4) The caspase 3/7 activity of cells following treatment with inhibitor compounds or vehicle (DMSO) was determined using the Caspase-Glo® 3/7 Assay (Catalogue number G8093, Promega, US) according to manufacturer's instructions. Briefly, 10,000 cells per well for PEO1 and PEO4 cell lines or 5000 cells per well for SKOV3 cell line were grown in 96 well plates in a final volume of 50 μl and following relevant drug treatment of cells (example compound±cisplatin, comparative example compound±cisplatin, or vehicle±cisplatin) for 24 hours, an equal volume of Caspase-Glo® Reagent containing a luminogenic substrate for Caspase 3 and Caspase 7 was added i.e. if cells cultured in 50 μl of media, 50 μl of caspase reagent was added. After 1 h incubation at room temperature in the dark, the luminescence of each sample was measured in a plate-reading luminometer (LUMIstar OPTIMA, BMG Labtech, Germany). Caspase 3/7 activity data was normalised to corresponding viability data from MTT and analysis was performed according to each experimental set-up.
. Apoptosis (caspase 3/7) and viability (MTT) assays were carried out as described for each assay protocols and the phenotypic apoptosis assays above. Relative apoptosis induction was inferred from caspase 3/7 assay values normalised to the standard MTT viability assay values of each corresponding well. […]

[3] = target: AKT1 (Homo sapiens, UniProt P31749); test: AKT1 enzymatic inhibition assay (HTRF KinEASE); assay type: biochemical; conditions: read-out: AKT1 pIC50 (converted)
Chain of AKT1 (P31749 150-408 limits assumed): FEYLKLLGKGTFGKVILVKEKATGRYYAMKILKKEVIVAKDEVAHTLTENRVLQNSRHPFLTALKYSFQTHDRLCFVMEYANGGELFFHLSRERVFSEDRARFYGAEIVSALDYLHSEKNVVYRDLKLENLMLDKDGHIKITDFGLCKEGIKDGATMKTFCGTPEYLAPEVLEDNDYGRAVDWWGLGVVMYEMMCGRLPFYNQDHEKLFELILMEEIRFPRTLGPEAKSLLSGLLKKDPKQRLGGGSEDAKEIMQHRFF
Experimental: (§5) The IC50 values of Example compounds of the invention for AKT1, AKT2 and AKT3 were measured using HTRF (Homogeneous Time Resolved Fluorescence) KinEASE assays (62ST3PEB—1000 tests or 62ST3PEC—20,000 tests) from cisbio.com, according to manufacturer's instructions.

[4] = target: AKT3 (Homo sapiens, UniProt Q9Y243); test: AKT3 enzymatic inhibition assay (HTRF KinEASE); assay type: biochemical; conditions: read-out: AKT3 pIC50 (converted)
Chain of AKT3 (Q9Y243 148-405 limits assumed): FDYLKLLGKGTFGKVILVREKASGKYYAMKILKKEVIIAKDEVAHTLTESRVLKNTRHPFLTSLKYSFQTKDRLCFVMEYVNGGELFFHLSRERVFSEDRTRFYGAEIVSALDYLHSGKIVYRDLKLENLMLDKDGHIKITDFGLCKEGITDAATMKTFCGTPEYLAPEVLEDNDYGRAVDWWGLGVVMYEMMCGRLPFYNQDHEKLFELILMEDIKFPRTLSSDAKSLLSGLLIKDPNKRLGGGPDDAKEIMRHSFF
Experimental: as §5

[5] = target: DNA-PK (Homo sapiens, UniProt P78527); test: DNA-PK enzymatic inhibition assay (HTRF KinEASE); assay type: biochemical; conditions: read-out: DNA-PK pIC50 (converted)
Experimental: The IC50 values of Example compounds of the invention for DNA-PK were measured using the HTRF KinEASE assay as described above.

[6] = tested on: platinum resistant cell line PEO4; test: Isobologram (Loewe synergy/antagonism, MTT viability) with cisplatin in PEO4; assay type: cell-based; conditions: PEO4, 72 hours, MTT readout
Experimental: as §1, §2, §3

[7] = tested on: PEO4 cells; test: Phenotypic apoptosis assay (caspase 3/7 normalised to MTT) plus/minus cisplatin in PEO4; assay type: cell-based; conditions: 24 hours
Experimental: (§6) MTT is bioreduced by mitochondrial dehydrogenase enzymes into a coloured solid formazan product. MTT reagent (Sigma, UK) was initially prepared by dissolving in PBS at a concentration of 3 mg/ml. […] After incubation for 3 h at 37° C. 5% CO2, an equal volume of stop solution (10% SDS in 0.01% HCl) was added and formed formazan crystals were allowed to dissolve shaking overnight. The following day, the optical density was read at 570 nm and analysis performed as per each assay type.
as §4
(§7) Phenotypic apoptosis assays were performed to determine the level of caspase 3/7 dependent apoptotic induction of each inhibitor compound in the presence or absence of cisplatin (cddp). PEO4 and SKOV3 cells were seeded out 24 hours prior to drug treatments. […] 5% CO2. […] Duplicate plates were set up for each experiment for caspase and MTT assays. Caspase and MTT assays were carried out according to the protocols described above.
(§8) Data shown in FIGS. 2A and 2B are n=3±s.e.m. Statistical significance was calculated using student t-test using GraphPad Prism software ** p<0.01, * p<0.05.

[8] = tested on: platinum sensitive cell line PEO1; test: Isobologram (Loewe synergy/antagonism, MTT viability) with cisplatin in PEO1; assay type: cell-based; conditions: PEO1, 72 hours, MTT readout
Experimental: as §1, §2, §3

[9] = target: AKT2 (Homo sapiens, UniProt P31751); test: AKT2 enzymatic inhibition assay (HTRF KinEASE); assay type: biochemical; conditions: read-out: AKT2 pIC50 (converted)
Chain of AKT2 (P31751 152-409 limits assumed): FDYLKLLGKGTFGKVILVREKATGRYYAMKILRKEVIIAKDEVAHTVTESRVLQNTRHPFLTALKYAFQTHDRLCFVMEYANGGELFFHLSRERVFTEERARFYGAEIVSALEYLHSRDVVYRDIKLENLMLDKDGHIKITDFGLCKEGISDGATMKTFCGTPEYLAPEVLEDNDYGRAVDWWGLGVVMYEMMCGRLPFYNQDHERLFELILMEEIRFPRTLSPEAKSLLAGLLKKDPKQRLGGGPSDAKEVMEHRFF
Experimental: as §5

[10] = tested on: SKOV3 cells; test: Phenotypic apoptosis assay (caspase 3/7 normalised to MTT) plus/minus cisplatin in SKOV3; assay type: cell-based; conditions: for activity in phenotypic in vitro apoptosis platinum re-sensitisation assays: inhibitor 6.67 μM + cisplatin 25 μM
Experimental: Data shown is n=3±s.e.m; ** p<0.01, * p<0.0^5.
as §6, §4, §7, §8

[11] = inhibitor 10 μM + cisplatin 25 μM
[12] = inhibitor 10 μM + cisplatin 25 μM, 24 hours

Structure (SMILES)	Relative re-sensitisation ratio of apoptosis induction (caspase 3/7) relative to triciribine phosphate [2]	IC50 [3]	IC50 [4]	IC50 [5]	IC50 [9]	activity in phenotypic in vitro apoptosis platinum re-sensitisation assays [10]	apoptosis (re-sensitisation) in combination with cisplatin [7, 11]	apoptosis (re-sensitisation) in combination with cisplatin [10, 12]	further results
CN(C)CC(c1ccc(Cl)cc1)N1CCN(c2ncnc3[nH]nc(Br)c23)CC1 (centres unmarked) [Example 1, 2-[4-(3-bromo-1H-pyrazolo[3,4-d]pyrimidin-4-yl)piperazin-1-yl]-2-(4-chlorophenyl)-N,N-dimethyl-ethanamine]	3.0	0.324 nM	0.112 nM	0.24 nM	0.55 nM	active	–	–	synergy in combination with cisplatin (Loewe isobologram analysis) [1]: strong synergy; synergy in combination with cisplatin (Loewe isobologram analysis) [6]: strong synergy; apoptosis (re-sensitisation) in combination with cisplatin compared to cisplatin alone ([7]; inhibitor 2 μM + cisplatin 25 μM): statistically significant increases in apoptosis; synergy in combination with cisplatin (Loewe isobologram analysis) [8]: superior synergy; apoptosis (re-sensitisation) in combination with cisplatin compared to cisplatin alone ([10]; inhibitor 2 μM + cisplatin 25 μM, 24 hours): statistically significant increases in apoptosis
CO[C@@H](C)Cn1c(=O)n(C)c2cnc3ccc(-c4cncc(C(C)(C)O)c4)cc3c21 [LY3023414, 8-[5-(2-hydroxypropan-2-yl)pyridin-3-yl]-1-[(2S)-2-methoxypropyl]-3-methylimidazo[4,5-c]quinolin-2-one]	–	–	–	–	–	–	showed re-sensitisation	showed re-sensitisation	–
CN(C)CCNC(c1ccc(Cl)cc1)C1CCN(c2ncnc3[nH]nc(C(F)(F)F)c23)CC1 (single isomer, unassigned; (+)) [Example 12a, (+)-N^1-((4-chlorophenyl)(1-(3-(trifluoromethyl)-1H-pyrazolo[3,4-d]pyrimidin-4-yl)piperidin-4-yl)methyl)-N^2,N^2-dimethylethane-1,2-diamine]	1.2	0.575 nM	0.219 nM	0.158 nM	1.41 nM	active	–	–	–
CN(C)CCNC(c1ccc(Cl)cc1)C1CCN(c2ncnc3[nH]nc(C(F)(F)F)c23)CC1 (single isomer, unassigned; (-)) [Example 12b, (−)-N^1-((4-chlorophenyl)(1-(3-(trifluoromethyl)-1H-pyrazolo[3,4-d]pyrimidin-4-yl)piperidin-4-yl)methyl)-N^2,N^2-dimethylethane-1,2-diamine]	1.0	3.39 nM	0.832 nM	5.37 nM	5.5 nM	active	–	–	–
CCn1c(-c2nonc2N)nc2c(C#CC(C)(C)O)ncc(OC[C@H]3CCCNC3)c21 [GSK-3g, 4-[2-(4-amino-1,2,5-oxadiazol-3-yl)-1-ethyl-7-[[(3S)-piperidin-3-yl]methoxy]imidazo[4,5-c]pyridin-4-yl]-2-methylbut-3-yn-2-ol, reference compound]	–	–	–	10.5 nM	–	inactive	–	–	–
CC(C)NC[C@@H](C(=O)N1CCN(c2ncnc3c2[C@H](C)C[C@H]3O)CC1)c1ccc(Cl)cc1 [Ipatasertib, (2S)-2-(4-chlorophenyl)-1-[4-[(5R,7R)-7-hydroxy-5-methyl-6,7-dihydro-5H-cyclopenta[d]pyrimidin-4-yl]piperazin-1-yl]-3-(propan-2-ylamino)propan-1-one]	–	–	–	–	–	–	–	–	apoptosis (re-sensitisation) in combination with cisplatin ([7]; inhibitor 20 μM + cisplatin 25 μM): showed re-sensitisation; apoptosis (re-sensitisation) in combination with cisplatin ([10]; inhibitor 20 μM + cisplatin 25 μM, 24 hours): showed re-sensitisation
CN(C)CCOC(c1ccc(Cl)cc1)C1CCN(c2ncnc3[nH]nc(Br)c23)CC1 (centres unmarked) [Example 2, 2-((1-(3-bromo-1H-pyrazolo[3,4-d]pyrimidin-4-yl)piperidin-4-yl)(4-chlorophenyl)methoxy)-N,N-dimethylethan-1-amine]	2.9	5.75 nM	3.63 nM	3.89 nM	10.5 nM	active	–	–	–
Cn1ncc(Cl)c1-c1cc(C(=O)N[C@H](CN)Cc2cccc(F)c2)sc1Cl [Afuresertib, N-[(2S)-1-amino-3-(3-fluorophenyl)propan-2-yl]-5-chloro-4-(4-chloro-2-methylpyrazol-3-yl)thiophene-2-carboxamide]	–	–	–	–	–	–	showed re-sensitisation	showed re-sensitisation	–
O=c1cc(N2CCOCC2)oc2c(-c3cccc4c3sc3ccccc34)cccc12 [NU7441, 8-dibenzothiophen-4-yl-2-morpholin-4-ylchromen-4-one]	–	–	–	–	–	–	showed re-sensitisation	showed re-sensitisation	–
Cn1ncc(Cl)c1-c1cc(C(=O)N[C@H](CN)Cc2ccc(F)c(F)c2)oc1Cl [Uprosertib, N-[(2S)-1-amino-3-(3,4-difluorophenyl)propan-2-yl]-5-chloro-4-(4-chloro-2-methylpyrazol-3-yl)furan-2-carboxamide]	–	–	–	–	–	–	showed re-sensitisation	showed re-sensitisation	–
